The results in this text go back to publication PMC11048155, “Antiviral Drug Candidate Repositioning for Streptococcus suis Infection in Non-Tumorigenic Cell Models” (Biomedicines, 2024).

Series [1] relates to Escherichia (E.) coli (ATCC 11775). Put plainly: MIC measurement (broth microdilution). Particulars: source ATCC, 18–24 h at 37 °C. In kind it is cell-based. A general note: Broth dilution looks for growth in wells or tubes with falling amounts of substance.
Series [2] relates to Salmonella (S.) enterica (clinical isolate). Put plainly: MIC measurement (broth microdilution). Format: cell-based. Particulars: source 204/22, 18–24 h at 37 °C. The text has this:
Bacterial strains used in this study were as follows: S. suis serotype 2 (ATCC 958242) Staphylococcus (S.) aureus (ATCC 10832), Escherichia (E.) coli (ATCC 11775), Pseudomonas (P.) aeruginosa (ATCC 27853), Pasteurella (P.) multocida (clinical isolate), Burkholderia (B.) cepacia (clinical isolate), Salmonella (S.) enterica (clinical isolate), and Enterococcus (E.) faecalis (clinical isolate). Of the clinical isolates used in this study, P. multocida is of porcine origin, B. cepacia is of human origin, and S. enterica and E. faecalis are of poultry origin. The bacterial strains were stored in the Microbiology Laboratory of the University of Veterinary Medicine, Budapest, at a temperature of −80 °C. Bacterial strains were inoculated the day before the test in 5 mL of Cation-Adjusted Mueller–Hinton Broth (CAMHB) and incubated for 18–24 h at 37 °C. The initial inoculum concentration used for the MIC assay was 5 × 10^5/mL. All wells except the first column of the working plates were filled with 90 µL CAMHB. A stock solution of inhibitors at 800 µM was then prepared, 180 µL of which was measured into the first column of plates and used to prepare a 2-based dilution on 96-well plates. After the 10th column, the tips were discarded with the 90 µL excess solution so that each column contained 90 µL of solution. Each bacterial strain was tested in a single row on the working plates. A bacterial suspension diluted to 25× was prepared on an auxiliary plate for bacterial inoculation by loading 240 µL of TSB per column of plates and adding 10–10 µL of bacterial strain suspension per well. In the next step, the isolated bacterial strains were inoculated onto the plates. Starting from column 11 (positive control) of the plates containing dilution row 2, 10 µL of bacterial suspension was added to each well, working backward. Column 11 served as a positive control (containing only bacterial suspension and broth), while column 12 served as a negative control (containing only broth). The microplates were then incubated at 37 °C for 18–24 h, and the MIC values were assessed in comparison to positive controls.

The test system of series [3] is Staphylococcus (S.) aureus (ATCC 10832). The series can be described thus: MIC measurement (broth microdilution). In kind it is cell-based. Conditions: source ATCC, 18–24 h at 37 °C, read-out: MIC.
In a further series the test system is S. suis serotype 2. The series can be described thus: MIC measurement (broth microdilution). Conditions: source 672/22, 18–24 h at 37 °C. Format: cell-based, Streptococcus suis.
In a further series the target is T1, CYP1A2 (Homo sapiens, UniProt P05177).
T1 sequence (P05177 1-516): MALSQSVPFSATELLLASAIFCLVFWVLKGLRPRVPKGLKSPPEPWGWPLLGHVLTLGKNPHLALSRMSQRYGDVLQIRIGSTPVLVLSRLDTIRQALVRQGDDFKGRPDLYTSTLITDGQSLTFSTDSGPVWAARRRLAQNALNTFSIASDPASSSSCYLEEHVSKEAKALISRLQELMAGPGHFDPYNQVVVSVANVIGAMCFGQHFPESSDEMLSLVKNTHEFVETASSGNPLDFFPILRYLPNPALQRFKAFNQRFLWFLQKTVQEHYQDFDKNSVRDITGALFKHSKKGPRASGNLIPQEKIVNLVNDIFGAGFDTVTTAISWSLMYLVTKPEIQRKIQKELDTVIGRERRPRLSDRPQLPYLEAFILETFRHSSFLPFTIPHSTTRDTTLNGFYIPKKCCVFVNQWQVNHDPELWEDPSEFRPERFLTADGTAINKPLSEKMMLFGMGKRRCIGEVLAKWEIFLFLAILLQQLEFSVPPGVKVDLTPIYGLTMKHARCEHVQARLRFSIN
The series can be described thus: CYP enzyme fluorometric activity measurement, human hepatic microsomes. Conditions: inhibitor 50 µM, human microsomes, 15 min; p > 0.05. Here is the method: (§1) The Biovision CYP assays (BioVision, Inc., Kampenhout, Belgium) employ non-fluorescent CYP2D6, 2C9, 2C19, 1A2, or 3A4 substrates able to undergo transformation into highly fluorescent detectable metabolites. […] Human hepatic microsomal supernatants were prepared (Gibco, Biocentre, Szeged, Hungary protein concentration: 20 mg/mL) separately by mixing 30 µL with 2425 µL assay buffer and with 50 µL nicotinamide adenine dinucleotide phosphate (NADPH) generating system (100×). […] Control measurements were performed in the absence of the inhibitors.
(§2) In background controls, only assay buffer excluding microsomes and test compounds was used in a volume of 70 µL. Subsequently, after incubation at 37 °C for 15 min, 30 µL of the suitable CYP substrate/NADP+ mixture was incorporated into each well, resulting in a final reaction volume of 100 µL/well. The obtained microsomal protein content was assessed using the bicinchoninic acid protein assay kit (Pierce BCA kit, Thermo Fisher Scientific, Waltham, MA, USA). In each assay, the microsomal protein concentration was calibrated to 100 µg/well. The fluorescence intensities were measured with a fluorometer (Victor X2 2030, Perkin Elmer, Waltham, MA, USA) using λex/em = 406/468 nm for CYP1A2 and for CYP2C19, λex/em = 415/502 nm for CYP2C9, λex/em = 390/468 nm for CYP2D6, and λex/em = 535/587 nm for CYP3A4 assays.

Another series concerns the target CYP3A4 (Homo sapiens, UniProt P08684). The series is described as above. Particulars: human microsomal preparations, 15 min, 37 °C, p < 0.0001. Here is the method: as §1, §2
Another series concerns IPEC-J2 cells. Put plainly: EC H2O2 production, Amplex red method. Format: cell-based, porcine. Conditions: 24 h. How it is done: For oxidative status measurements, inhibitors MI-432, MI-471, or MI-476 were used at 50 µM in the absence and presence of S. suis for 24 h in IPEC-J2 cells and in primary porcine hepatocytes on 24-well plates. An Amplex red hydrogen peroxide assay kit was used to monitor EC hydrogen peroxide (H₂O₂) production in IPEC-J2 cells and in hepatocytes. Following the manufacturer’s instructions, cell-free supernatants were collected and mixed with the Amplex red working solution (in a ratio of 1:1). A Victor X2 2030 fluorometer was used to detect fluorescence intensity at wavelengths 530 nm and 590 nm for excitation and emission, respectively.

[4] abbreviates: IPEC-J2, S. suis 10^4 CFU/mL in combination with inhibitor 50 µM.

Structures are written as SMILES. Converted amounts (≈) assume the structure as drawn. “Also recorded” adds a separate entry of the source. A value given as a limit tells only on which side of the number the result lay.

Chain of CYP3A4 (P08684 whole entry): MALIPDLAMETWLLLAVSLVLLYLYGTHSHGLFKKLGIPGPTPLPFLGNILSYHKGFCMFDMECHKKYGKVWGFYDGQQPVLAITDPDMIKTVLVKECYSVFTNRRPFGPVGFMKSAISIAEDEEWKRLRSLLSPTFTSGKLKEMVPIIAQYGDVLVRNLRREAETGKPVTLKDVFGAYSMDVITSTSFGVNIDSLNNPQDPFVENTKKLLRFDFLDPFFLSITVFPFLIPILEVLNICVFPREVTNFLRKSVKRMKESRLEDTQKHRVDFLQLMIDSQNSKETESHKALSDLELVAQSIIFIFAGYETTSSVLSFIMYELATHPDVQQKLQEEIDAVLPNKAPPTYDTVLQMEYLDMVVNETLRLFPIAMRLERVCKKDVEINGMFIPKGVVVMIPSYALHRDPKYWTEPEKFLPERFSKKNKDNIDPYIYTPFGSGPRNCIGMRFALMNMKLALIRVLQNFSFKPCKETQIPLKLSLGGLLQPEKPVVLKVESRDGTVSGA

Regarding `N=C(N)c1cccc(C[C@H](NS(=O)(=O)c2cccc(-c3ccc(Cl)cc3Cl)c2)C(=O)N2CCC(N)CC2)c1` [MI-471], the MIC (as a rule, the least concentration at which growth counts as inhibited) in series [1] was over 800 µM; in series [2], over 800 µM; in series [3] it was 100 µM (≈ 57.5 µg/mL); against S. suis serotype 2 (Streptococcus suis), 3 µM (≈ 1.72 µg/mL); with S. suis serotype 2, 3.125 µM (≈ 1.8 µg/mL). Besides, on CYP1A2, the CYP1A2 activity result is on record as “No significant inhibitory effects”. For the same compound, the CYP3A4 isoenzyme activity entry on CYP3A4 (inhibitor 10 µM), at CYP3A4 (inhibitor 25 µM) and at CYP3A4 (inhibitor 50 µM) was “mitigated” throughout. Moreover, the “EC H2O2 production” value is recorded as “significant increase; also recorded: significant elevation in H2O2 levels” in the series with IPEC-J2 cells (setting [4]) and “unchanged H₂O₂ production” with IPEC-J2 cells (IPEC-J2, inhibitor alone 50 µM).
On to `N=C(N)c1cccc(C[C@H](NS(=O)(=O)c2cccc(-c3ccc(Cl)cc3Cl)c2)C(=O)N2CCC(CN)CC2)c1` [MI-476], for which the MIC in series [1] was over 800 µM; in series [2], over 800 µM; in series [3], 100 µM (≈ 58.9 µg/mL); in the series on S. suis serotype 2 (Streptococcus suis) it was 6 µM (≈ 3.53 µg/mL); against S. suis serotype 2, 6.25 µM (≈ 3.68 µg/mL). For the same compound, the CYP1A2 activity result at CYP1A2 is “No significant inhibitory effects”. In addition, the CYP3A4 isoenzyme activity result on CYP3A4 (inhibitor 10 µM), on CYP3A4 (inhibitor 25 µM) and on CYP3A4 (inhibitor 50 µM) was “mitigated” throughout. For the same compound, the “EC H2O2 production” value is “unchanged H₂O₂ production; also recorded: antioxidant properties” in the series on IPEC-J2 cells (setting [4]) and “unchanged H₂O₂ production” with IPEC-J2 cells (IPEC-J2, inhibitor alone 50 µM).
